Literature values in patent US10894875B2, “Films and unit dose articles comprising aversive UV-protective agents, and uses and methods related thereto” (The Procter & Gamble Company, priority 2017, dated 2021).
Marks after values point to notes of the source that are not given here.

What was measured:
[1] = high assessed based on melting point; low = hydrolysis; based on literature
[2] = reference quinine; lower values correspond to stronger bittering
[3] = Scoville heat units

SMILES: CCCCCOC(=O)c1ccc(N(C)C)cc1 [Ex. 6, Padimate A, reference compound]
- Thermostability [1]: Low^c

SMILES: C=C[C@H]1C[N@@]2CC[C@H]1C[C@H]2[C@H](O)c1ccnc2ccc(OC)cc12 [Ex. 7, Quinine, reference compound]
- Bittering index [2]: 0^d

SMILES: COc1cc(CNC(=O)CCCC/C=C/C(C)C)ccc1O [capsaicin]
- pungency level [3]: about 16,000,000 SHU
